Data set [1] addresses T1, Protein cereblon/Cyclin-dependent kinase 12 (Homo sapiens) (UniProt Q9NYV4+Q96SW2). Description: PROTAC activity at CRBN/CDK12 in human Jurkat cells assessed as induction of CDK12 degradation up to 500 nM incubated for 6 hrs by western blot analysis. Type of data set: cell-based. The conditions noted are these: dose nM <=500, time 6.0 hrs.
For data set [2], the target named is T1, Protein cereblon/Cyclin-dependent kinase 12 (Homo sapiens). In words: PROTAC activity at CRBN/CDK12 in human Jurkat cells assessed as induction of CDK12 degradation at 100 nM incubated for 6 hrs by western blot analysis. It counts as cell-based.
Data set [3] in a line: AUClast in C57BL/6 mouse at 2 mg/kg, iv measured up to 8 hrs post-dosing. The arrangement: route intravenous, dose 2 mg/kg, time <=8. Conditions: in vivo. It counts as ADME, organism-based.
Data set [4] is described as follows: Half life in C57BL/6 mouse at 2 mg/kg, iv measured up to 8 hrs post-dosing. It counts as ADME, organism-based. The conditions noted are these: in vivo.
The nature of data set [5]: Cmax in C57BL/6 mouse at 2 mg/kg, iv measured up to 8 hrs post-dosing. Type of data set: ADME, organism-based. Further details: route intravenous, dose 2 mg/kg, time <=8. Conditions: in vivo.
Data set [6] can be described thus: AUC (extrapolated) in C57BL/6 mouse at 2 mg/kg, iv measured up to 8 hrs post-dosing. Type of data set: ADME, organism-based. The conditions noted are these: in vivo.
A short description of data set [7]: AUC(infinity) in C57BL/6 mouse at 2 mg/kg, iv measured up to 8 hrs post-dosing. It counts as ADME, organism-based. The arrangement: route intravenous, dose 2 mg/kg, time <=8. Conditions: in vivo.

Several values for one entry are separate records, joined by “and”; a condition that tells them apart may be missing. Identical values can stand only once. Activity calls are given as the source filed them. The calls are words filed in the database; no cut-off is given here.

T1 sequence (Q96SW2 whole entry, looked up): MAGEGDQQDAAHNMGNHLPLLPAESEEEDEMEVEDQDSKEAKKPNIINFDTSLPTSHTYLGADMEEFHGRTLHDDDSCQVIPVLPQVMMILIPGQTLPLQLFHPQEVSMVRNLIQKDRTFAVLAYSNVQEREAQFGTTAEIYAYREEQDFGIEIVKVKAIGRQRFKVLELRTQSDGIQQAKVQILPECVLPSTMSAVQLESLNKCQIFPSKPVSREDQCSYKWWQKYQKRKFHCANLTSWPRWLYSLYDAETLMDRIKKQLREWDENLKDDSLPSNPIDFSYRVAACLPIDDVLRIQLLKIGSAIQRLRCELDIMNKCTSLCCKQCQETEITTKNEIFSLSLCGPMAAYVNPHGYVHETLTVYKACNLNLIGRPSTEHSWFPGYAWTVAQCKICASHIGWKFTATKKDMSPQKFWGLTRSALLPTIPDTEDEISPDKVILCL
T1 sequence (Q9NYV4 whole entry, looked up): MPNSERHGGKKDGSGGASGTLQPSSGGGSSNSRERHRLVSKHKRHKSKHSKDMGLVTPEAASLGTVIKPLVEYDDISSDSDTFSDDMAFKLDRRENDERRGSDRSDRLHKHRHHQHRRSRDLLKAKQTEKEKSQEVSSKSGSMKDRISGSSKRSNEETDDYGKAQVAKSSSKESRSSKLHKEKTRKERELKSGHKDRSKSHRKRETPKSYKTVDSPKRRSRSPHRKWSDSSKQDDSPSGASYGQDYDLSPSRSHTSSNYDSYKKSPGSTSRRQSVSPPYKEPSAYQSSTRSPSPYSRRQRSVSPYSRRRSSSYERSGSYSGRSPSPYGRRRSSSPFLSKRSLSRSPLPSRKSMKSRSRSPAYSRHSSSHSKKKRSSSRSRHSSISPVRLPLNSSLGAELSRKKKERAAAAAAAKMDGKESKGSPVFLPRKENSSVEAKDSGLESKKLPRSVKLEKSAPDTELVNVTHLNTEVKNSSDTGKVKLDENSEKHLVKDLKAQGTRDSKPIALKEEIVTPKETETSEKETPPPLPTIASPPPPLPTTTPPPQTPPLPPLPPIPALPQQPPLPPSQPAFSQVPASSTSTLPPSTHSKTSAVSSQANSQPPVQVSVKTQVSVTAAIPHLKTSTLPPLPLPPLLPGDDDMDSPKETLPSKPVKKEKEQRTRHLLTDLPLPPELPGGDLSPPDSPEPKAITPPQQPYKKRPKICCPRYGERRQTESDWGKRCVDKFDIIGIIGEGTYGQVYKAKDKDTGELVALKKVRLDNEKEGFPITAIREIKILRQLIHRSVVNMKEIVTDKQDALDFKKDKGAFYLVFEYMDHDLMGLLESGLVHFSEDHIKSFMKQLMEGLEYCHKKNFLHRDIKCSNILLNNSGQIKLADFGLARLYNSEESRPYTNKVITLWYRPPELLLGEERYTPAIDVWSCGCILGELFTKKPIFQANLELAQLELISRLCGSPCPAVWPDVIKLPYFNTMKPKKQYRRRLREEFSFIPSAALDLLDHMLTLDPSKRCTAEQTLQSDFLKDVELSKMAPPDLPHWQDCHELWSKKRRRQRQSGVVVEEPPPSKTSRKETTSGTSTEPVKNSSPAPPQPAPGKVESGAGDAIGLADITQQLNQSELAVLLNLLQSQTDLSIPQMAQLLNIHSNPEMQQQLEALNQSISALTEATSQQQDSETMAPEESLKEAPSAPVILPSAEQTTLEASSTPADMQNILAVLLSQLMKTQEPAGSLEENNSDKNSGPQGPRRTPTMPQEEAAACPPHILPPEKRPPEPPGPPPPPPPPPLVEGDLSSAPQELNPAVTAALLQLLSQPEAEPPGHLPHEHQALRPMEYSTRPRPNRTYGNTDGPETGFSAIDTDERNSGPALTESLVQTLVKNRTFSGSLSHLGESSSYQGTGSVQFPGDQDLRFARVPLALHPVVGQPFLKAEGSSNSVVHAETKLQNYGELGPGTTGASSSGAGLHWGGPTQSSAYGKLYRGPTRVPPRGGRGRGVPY

For `O=C(COc1cccc2c1C(=O)N(C1CCC(=O)NC1=O)C2=O)NCCOCCOCCN1CCC[C@@H](Nc2ncc(Cl)c(-c3c[nH]c4ccccc34)n2)C1` (some centres not stated), the result in data set [1] was inactive.

In the case of `O=C(COc1cccc2c1C(=O)N(C1CCC(=O)NC1=O)C2=O)NCCCCCCCN1CCC[C@@H](Nc2ncc(Cl)c(-c3c[nH]c4ccccc34)n2)C1` (some centres not stated), the Activity in data set [2] stood at 90%.

Turning to `O=C(COc1cccc2c1C(=O)N(C1CCC(=O)NC1=O)C2=O)NCCCCCC(=O)N1CCC[C@@H](Nc2ncc(Cl)c(-c3c[nH]c4ccccc34)n2)C1` (some centres not stated), the outcome in data set [1] was inactive.

As to `Cc1ncsc1-c1ccc([C@H](C)NC(=O)[C@@H]2C[C@@H](O)CN2C(=O)[C@@H](NC(=O)CCCCCCCCCCN2CCC[C@@H](Nc3ncc(Cl)c(Nc4ccccc4S(=O)(=O)C(C)C)n3)C2)C(C)(C)C)cc1`, the AUC(0-t) at 8 h in data set [3] is 5720 ng·h/mL and 5.61 µM·h. This compound also had a half-life in data set [4] of 2.21 h. Further, the Cmax in data set [5] is 4570 ng/mL and 4.49 µM. In addition, the “%AUCextra” value in data set [6] is 6.27%. The Activity in data set [2] came out at 90%. The same compound gave an AUC(0-inf) in data set [7] of 6140 ng·h/mL.

With `O=C(COc1cccc2c1C(=O)N(C1CCC(=O)NC1=O)C2=O)NCCCCCCN1CCC(C(=O)N2CCC[C@@H](Nc3ncc(Cl)c(-c4c[nH]c5ccccc45)n3)C2)CC1` (some centres not stated), in data set [2], the Activity came to 80%.

With `O=C(COc1cccc2c1C(=O)N(C1CCC(=O)NC1=O)C2=O)NCCCCCN1CCC[C@@H](Nc2ncc(Cl)c(-c3c[nH]c4ccccc34)n2)C1` (some centres not stated), in data set [1], the outcome was inactive.

As to `Cc1ncsc1-c1ccc([C@H](C)NC(=O)[C@@H]2C[C@@H](O)CN2C(=O)[C@@H](NC(=O)CCOCCOCCOCCN2CCC[C@@H](Nc3ncc(Cl)c(Nc4ccccc4S(=O)(=O)C(C)C)n3)C2)C(C)(C)C)cc1`, the Activity in data set [2] stood at 90%.

In the case of `Cc1ncsc1-c1ccc([C@H](C)NC(=O)[C@H]2C[C@H](O)CN2C(=O)[C@@H](NC(=O)CCCCCCCCCCN2CCC[C@@H](Nc3ncc(Cl)c(Nc4ccccc4S(=O)(=O)C(C)C)n3)C2)C(C)(C)C)cc1`, in data set [1], the outcome was inactive.

For `O=C(COc1cccc2c1C(=O)N(C1CCC(=O)NC1=O)C2=O)NCCCN1CCN(c2ccc(C(=O)N3CCC[C@@H](Nc4ncc(Cl)c(-c5c[nH]c6ccccc56)n4)C3)cc2)CC1` (some centres not stated), the Activity in data set [2] amounted to 60%.

As to `O=C(COc1cccc2c1C(=O)N(C1CCC(=O)NC1=O)C2=O)NCCCCCN1CCN(c2ccc(C(=O)N3CCC[C@@H](Nc4ncc(Cl)c(-c5c[nH]c6ccccc56)n4)C3)cc2)CC1` (some centres not stated), the Activity in data set [2] is 80%.

In the case of `O=C(COc1cccc2c1C(=O)N(C1CCC(=O)NC1=O)C2=O)NCCCCCCCN1CCC(C(=O)N2CCC[C@@H](Nc3ncc(Cl)c(-c4c[nH]c5ccccc45)n3)C2)CC1` (some centres not stated), the Activity in data set [2] was 80%.

As for `O=C(COc1cccc2c1C(=O)N(C1CCC(=O)NC1=O)C2=O)NCCCCCCN1CCC[C@@H](Nc2ncc(Cl)c(-c3c[nH]c4ccccc34)n2)C1` (some centres not stated), the Activity in data set [2] worked out at 80%.

`O=C(COc1cccc2c1C(=O)N(C1CCC(=O)NC1=O)C2=O)NCCCCN1CCC[C@@H](Nc2ncc(Cl)c(-c3c[nH]c4ccccc34)n2)C1` (some centres not stated): in data set [1], the result was inactive.

Turning to `O=C(COc1cccc2c1C(=O)N(C1CCC(=O)NC1=O)C2=O)NCCOCCOCCC(=O)N1CCC[C@@H](Nc2ncc(Cl)c(-c3c[nH]c4ccccc34)n2)C1` (some centres not stated), the result in data set [1] was inactive.

With `O=C(COc1cccc2c1C(=O)N(C1CCC(=O)NC1=O)C2=O)NCCOCCOCCOCCN1CCC[C@@H](Nc2ncc(Cl)c(-c3c[nH]c4ccccc34)n2)C1` (some centres not stated), in data set [2], the Activity was 80%.

Regarding `CC(C)S(=O)(=O)c1ccccc1Nc1nc(N[C@@H]2CCCN(CCCCCCCNC(=O)COc3cccc4c3C(=O)N(C3CCC(=O)NC3=O)C4=O)C2)ncc1Cl` (some centres not stated), the Activity in data set [2] was found to be 90%.

With `O=C(COc1cccc2c1C(=O)N(C1CCC(=O)NC1=O)C2=O)NCCCCCCCN1CCN(c2cccc(C(=O)N3CCC[C@@H](Nc4ncc(Cl)c(-c5c[nH]c6ccccc56)n4)C3)c2)CC1` (some centres not stated), in data set [1], the outcome was inactive.

The values above are taken from ChEMBL document CHEMBL4806970, “Degraders of cyclin-dependent kinase 12 (cdk12) and uses thereof” (2020).
